Experimental data reported in PubChem BioAssay AID250 (DTP/NCI, 2004).
Where “and” joins values, the source holds several entries; their conditions need not be identical. Equal values may be shown once. Inconclusive results and toxic doses are left out.

System: BDF1 mice, L1210 leukemia sc, survival T/C
Experiment: NCI In Vivo Anticancer Drug Screen. Data for tumor model L1210 Leukemia (subcutaneous) in B6D2F1 (BDF1) mice
Conditions: endpoint: median survival time, higher = longer survival
How it was run: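 Tumors were transplanted into mice, the animals were treated with compound, survival or tumor size was then measured, and treated values were divided by vehicle-control values.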

O=C(Nc1ccc(C2=NCCN2)cc1)c1ccc(C(=O)Nc2ccc(C3=NCCN3)cc2)c(Cl)c1
T/C (dose: 0.19 mg/kg/injection, schedule: Q01DX Z (iv), vehicle: water): 100 % of control | T/C (dose: 0.38 mg/kg/injection, schedule: Q01DX Z (iv), vehicle: water): 100 % of control | T/C (dose: 0.75 mg/kg/injection, schedule: Q01DX Z (iv), vehicle: water): 90 % of control | T/C (dose: 1.3 mg/kg/injection, schedule: Q01DX Z (ip), vehicle: water): 95 % of control | T/C (dose: 1.5 mg/kg/injection, schedule: Q01DX Z (iv), vehicle: water): 95 % of control | T/C (dose: 2.16 mg/kg/injection, schedule: Q01DX Z (ip), vehicle: water): 100 % of control | T/C (dose: 2.16 mg/kg/injection, schedule: Q01DX Z (sc), vehicle: water): 95 % of control | T/C (dose: 2.5 mg/kg/injection, schedule: Q01DX Z (sc), vehicle: methylcellulose (MC)): 111 % of control | T/C (dose: 3.0 mg/kg/injection, schedule: Q01DX Z (ip), vehicle: water): 100 % of control | T/C (dose: 3.0 mg/kg/injection, schedule: Q01DX Z (iv), vehicle: water): 100 % of control | T/C (dose: 3.0 mg/kg/injection, schedule: Q01DX Z (sc), vehicle: saline): 100 % of control and 104 % of control | T/C (dose: 3.6 mg/kg/injection, schedule: Q01DX Z (ip), vehicle: water): 90 % of control | T/C (dose: 3.6 mg/kg/injection, schedule: Q01DX Z (sc), vehicle: water): 100 % of control | T/C (dose: 5.0 mg/kg/injection, schedule: Q01DX Z (ip), vehicle: water): 100 % of control | T/C (dose: 5.0 mg/kg/injection, schedule: Q01DX Z (sc), vehicle: methylcellulose (MC)): 116 % of control | T/C (dose: 5.0 mg/kg/injection, schedule: Q01DX Z (sc), vehicle: saline): 100 % of control | T/C (dose: 5.0 mg/kg/injection, schedule: Q01DX Z (sc), vehicle: water): 110 % of control and 111 % of control | T/C (dose: 6.0 mg/kg/injection, schedule: Q01DX Z (ip), vehicle: water): 95 % of control | T/C (dose: 6.0 mg/kg/injection, schedule: Q01DX Z (iv), vehicle: water): 100 % of control | T/C (dose: 6.0 mg/kg/injection, schedule: Q01DX Z (sc), vehicle: water): 100 % of control | T/C (dose: 8.4 mg/kg/injection, schedule: Q01DX Z (ip), vehicle: water): 160 % of control | T/C (dose: 8.4 mg/kg/injection, schedule: Q01DX Z (sc), vehicle: saline): 109 % of control and 110 % of control and 122 % of control | T/C (dose: 8.4 mg/kg/injection, schedule: Q01DX Z (sc), vehicle: water): 170 % of control | T/C (dose: 10.0 mg/kg/injection, schedule: Q01DX Z (ip), vehicle: water): 105 % of control | T/C (dose: 10.0 mg/kg/injection, schedule: Q01DX Z (sc), vehicle: methylcellulose (MC)): 244 % of control | T/C (dose: 10.0 mg/kg/injection, schedule: Q01DX Z (sc), vehicle: water): 120 % of control and 233 % of control | T/C (dose: 12.0 mg/kg/injection, schedule: Q01DX Z (sc), vehicle: water): 181 % of control | T/C (dose: 14.0 mg/kg/injection, schedule: Q01DX Z (ip), vehicle: water): 160 % of control | T/C (dose: 14.0 mg/kg/injection, schedule: Q01DX Z (sc), vehicle: saline): 210 % of control | T/C (dose: 14.0 mg/kg/injection, schedule: Q01DX Z (sc), vehicle: water): 190 % of control and 170 % of control | T/C (dose: 14.0 mg/kg/injection, schedule: Q02DX Z (sc), vehicle: saline): 100 % of control | T/C (dose: 17.0 mg/kg/injection, schedule: Q01DX001 (ip), vehicle: water): 100 % of control | T/C (dose: 17.0 mg/kg/injection, schedule: Q01DX Z (sc), vehicle: water): 210 % of control | T/C (dose: 20.0 mg/kg/injection, schedule: Q01DX Z (sc), vehicle: methylcellulose (MC)): 244 % of control | T/C (dose: 20.0 mg/kg/injection, schedule: Q01DX Z (sc), vehicle: water): 244 % of control | T/C (dose: 23.0 mg/kg/injection, schedule: Q01DX Z (ip), vehicle: water): 180 % of control | T/C (dose: 23.0 mg/kg/injection, schedule: Q01DX Z (sc), vehicle: other): 210 % of control | T/C (dose: 23.0 mg/kg/injection, schedule: Q01DX Z (sc), vehicle: saline): 195 % of control and 200 % of control | T/C (dose: 23.0 mg/kg/injection, schedule: Q01DX Z (sc), vehicle: water): 210 % of control and 240 % of control and 170 % of control | T/C (dose: 23.0 mg/kg/injection, schedule: Q02DX Z (sc), vehicle: saline): 110 % of control | T/C (dose: 23.0 mg/kg/injection, schedule: Q## X Z (sc), vehicle: saline): 110 % of control | T/C (dose: 24.0 mg/kg/injection, schedule: Q01DX Z (sc), vehicle: water): 200 % of control | T/C (dose: 28.0 mg/kg/injection, schedule: Q01DX001 (ip), vehicle: water): 100 % of control | T/C (dose: 28.0 mg/kg/injection, schedule: Q01DX Z (ip), vehicle: water): 205 % of control | T/C (dose: 28.0 mg/kg/injection, schedule: Q01DX Z (sc), vehicle: water): 190 % of control | T/C (dose: 39.0 mg/kg/injection, schedule: Q01DX Z (sc), vehicle: other): 200 % of control | T/C (dose: 39.0 mg/kg/injection, schedule: Q01DX Z (sc), vehicle: saline): 180 % of control and 185 % of control and 195 % of control | T/C (dose: 39.0 mg/kg/injection, schedule: Q01DX Z (sc), vehicle: water): 210 % of control and 195 % of control | T/C (dose: 39.0 mg/kg/injection, schedule: Q## X Z (sc), vehicle: saline): 170 % of control | T/C (dose: 40.0 mg/kg/injection, schedule: Q01DX001 (sc), vehicle: methylcellulose (MC)): 111 % of control | T/C (dose: 40.0 mg/kg/injection, schedule: Q01DX Z (sc), vehicle: methylcellulose (MC)): 177 % of control | T/C (dose: 40.0 mg/kg/injection, schedule: Q01DX Z (sc), vehicle: water): 227 % of control | T/C (dose: 47.0 mg/kg/injection, schedule: Q01DX001 (ip), vehicle: water): 100 % of control | T/C (dose: 47.0 mg/kg/injection, schedule: Q01DX Z (sc), vehicle: water): 200 % of control | T/C (dose: 48.0 mg/kg/injection, schedule: Q01DX Z (sc), vehicle: water): 181 % of control | T/C (dose: 65.0 mg/kg/injection, schedule: Q01DX Z (sc), vehicle: other): 180 % of control | T/C (dose: 65.0 mg/kg/injection, schedule: Q01DX Z (sc), vehicle: saline): 155 % of control and 163 % of control and 166 % of control | T/C (dose: 65.0 mg/kg/injection, schedule: Q01DX Z (sc), vehicle: water): 155 % of control and 185 % of control and 170 % of control | T/C (dose: 65.0 mg/kg/injection, schedule: Q## X Z (sc), vehicle: saline): 200 % of control | T/C (dose: 78.0 mg/kg/injection, schedule: Q01DX001 (ip), vehicle: water): 100 % of control | T/C (dose: 78.0 mg/kg/injection, schedule: Q01DX001 (sc), vehicle: water): 100 % of control | T/C (dose: 78.0 mg/kg/injection, schedule: Q01DX Z (sc), vehicle: water): 170 % of control | T/C (dose: 80.0 mg/kg/injection, schedule: Q01DX001 (sc), vehicle: methylcellulose (MC)): 116 % of control | T/C (dose: 80.0 mg/kg/injection, schedule: Q01DX Z (sc), vehicle: methylcellulose (MC)): 111 % of control | T/C (dose: 80.0 mg/kg/injection, schedule: Q01DX Z (sc), vehicle: water): 155 % of control | T/C (dose: 108.0 mg/kg/injection, schedule: Q01DX001 (sc), vehicle: saline): 170 % of control | T/C (dose: 108.0 mg/kg/injection, schedule: Q01DX Z (sc), vehicle: saline): 154 % of control | T/C (dose: 108.0 mg/kg/injection, schedule: Q02DX Z (sc), vehicle: saline): 200 % of control | T/C (dose: 130.0 mg/kg/injection, schedule: Q01DX001 (ip), vehicle: water): 105 % of control | T/C (dose: 130.0 mg/kg/injection, schedule: Q01DX001 (sc), vehicle: water): 110 % of control | T/C (dose: 160.0 mg/kg/injection, schedule: Q01DX001 (sc), vehicle: methylcellulose (MC)): 166 % of control | T/C (dose: 160.0 mg/kg/injection, schedule: Q01DX001 (sc), vehicle: water): 161 % of control | T/C (dose: 180.0 mg/kg/injection, schedule: Q01DX001 (sc), vehicle: saline): 190 % of control | T/C (dose: 180.0 mg/kg/injection, schedule: Q01DX Z (sc), vehicle: other): 115 % of control | T/C (dose: 180.0 mg/kg/injection, schedule: Q02DX Z (sc), vehicle: saline): 180 % of control | T/C (dose: 300.0 mg/kg/injection, schedule: Q01DX Z (sc), vehicle: other): 90 % of control | T/C (dose: 300.0 mg/kg/injection, schedule: Q01DX Z (sc), vehicle: water): 105 % of control | T/C (dose: 300.0 mg/kg/injection, schedule: Q02DX Z (sc), vehicle: saline): 170 % of control | T/C (dose: 300.0 mg/kg/injection, schedule: Q## X Z (sc), vehicle: saline): 205 % of control | T/C (dose: 320.0 mg/kg/injection, schedule: Q01DX001 (sc), vehicle: water): 222 % of control | T/C (dose: 360.0 mg/kg/injection, schedule: Q01DX001 (sc), vehicle: water): 155 % of control | T/C (dose: 500.0 mg/kg/injection, schedule: Q## X Z (sc), vehicle: saline): 200 % of control | T/C (dose: 600.0 mg/kg/injection, schedule: Q01DX001 (sc), vehicle: water): 150 % of control
